26 compounds from US8551984B2, “Aminopyrimidines as SYK inhibitors” (Merck Sharp & Dohme Corp., priority 2009, dated 2013) can be followed below.

The test deals with recombinant human SYK (GST-hSYK fusion protein) (Homo sapiens, UniProt P43405). The test can be described thus: biochemical. The following applies: rhSYK Activity (IC50), recombinant human GST-SYK 5 pM, ATP 25 μM, biotinylated substrate peptide 250 nM, HTRF, 10-dose titration. (Time-resolved FRET reads energy transfer from a long-lived donor to a nearby acceptor.)

From the text: Homogeneous Time-Resolved Fluorescence (HTRF) Assay for the Recombinant Human SYK Enzyme:

For orientation: IC50 means the concentration that gives 50% inhibition. In the case of `Cc1cc(Nc2nccc(C(F)(F)F)n2)cc(-c2cnc(C(=O)N(C)CC3COCCO3)s2)c1` (centres unmarked) [Example 87A-23], the IC50 is 100 to 1000 nM.

Turning to `COCC(O)CNC(=O)c1ncc(-c2cc(C)cc(Nc3nccc(C(F)(F)F)n3)c2)s1` (centres unmarked) [Example 87A-24], the IC50 is < 100 nM.

As to `Cc1cc(Nc2nccc(C(F)(F)F)n2)cc(-c2cnc(C(=O)NCc3ncc[nH]3)s2)c1` [Example 87A-25], the IC50 is < 100 nM.

Consider `Cc1cc(Nc2nccc(C(F)(F)F)n2)cc(-c2cnc(C(=O)N(C)CC(O)CO)s2)c1` (centres unmarked) [Example 87A-26], for which the IC50 was < 100 nM.

Turning to `Cc1cc(Nc2nccc(C(F)(F)F)n2)cc(-c2cnc(C(=O)N(C)CCS(C)(=O)=O)s2)c1` [Example 87A-27], the half-inhibitory concentration (IC50) was 1000 to 10000 nM.

Take `CCN(C)C(=O)c1ncc(-c2cc(C)cc(Nc3nccc(C(F)(F)F)n3)c2)s1` [Example 87A-28]: the IC50 is 100 to 1000 nM.

In the case of `Cc1cc(Nc2nccc(C(F)(F)F)n2)cc(-c2cnc(C(=O)N(CCO)CCO)s2)c1` [Example 87A-29], the IC50 is < 100 nM.

Turning to `CNC(=O)CN(C)C(=O)c1ncc(-c2cc(C)cc(Nc3nccc(C(F)(F)F)n3)c2)s1` [Example 87A-30], the IC50 was < 100 nM.

`Cc1cc(Nc2nccc(C(F)(F)F)n2)cc(-c2cnc(C(=O)N[C@H](c3ccccc3)[C@@H](O)C(=O)O)s2)c1` [Example 87A-32]: the IC50 was < 100 nM.

For the compound `Cc1cc(Nc2nccc(C(F)(F)F)n2)cc(-c2cnc(C(=O)NC(CO)(CO)CO)s2)c1` [Example 87A-34], the IC50 is < 100 nM.

Consider `Cc1cc(Nc2nccc(C(F)(F)F)n2)cc(-c2cnc(C(=O)NCCC(=O)O)s2)c1` [Example 87A-35], for which the IC50 is < 100 nM.

With `Cc1cc(Nc2nccc(C(F)(F)F)n2)cc(-c2cnc(C(=O)NCCCN(CCO)CCO)s2)c1` [Example 87A-36], the half-inhibitory concentration (IC50) was < 100 nM.

Take `Cc1cc(Nc2nccc(C(F)(F)F)n2)cc(-c2cnc(C(=O)NC3CCC(C(=O)O)CC3)s2)c1` (centres unmarked) [Example 87A-37]: the IC50 is < 100 nM.

Regarding `NC(=O)c1ncc(-c2cccc(Nc3nccc(C(F)(F)F)n3)c2)s1` [Example 87A-38], the IC50 is < 100 nM.

Take `Cc1cc(Nc2nccc(C(F)(F)F)n2)cc(-c2cnc(C(=O)N3CCCC3)s2)c1` [Example 87B-1]: the IC50 lay within 100 to 1000 nM.

Take `Cc1cc(Nc2nccc(C(F)(F)F)n2)cc(-c2cnc(C(=O)N3CCN(C)CC3)s2)c1` [Example 87B-3]: the IC50 was in the range of 100 to 1000 nM.

`Cc1cc(Nc2nccc(C(F)(F)F)n2)cc(-c2cnc(C(=O)N3CCN(C)C(=O)C3)s2)c1` [Example 87B-4]: the IC50 is < 100 nM.

In the case of `Cc1cc(Nc2nccc(C(F)(F)F)n2)cc(-c2cnc(C(=O)N3CCN(C)C(=O)C3C)s2)c1` (centres unmarked) [Example 87B-5], the half-maximal inhibitory concentration (IC50) was 100 to 1000 nM.

Regarding `Cc1cc(Nc2nccc(C(F)(F)F)n2)cc(-c2cnc(C(=O)N3CCn4cccc4C3)s2)c1` [Example 87B-6], the IC50 was < 100 nM.

Consider `CC(=O)N1CCN(C(=O)c2ncc(-c3cc(C)cc(Nc4nccc(C(F)(F)F)n4)c3)s2)CC1` [Example 87B-7], for which the IC50 is 100 to 1000 nM.

Consider `Cc1cc(Nc2nccc(C(F)(F)F)n2)cc(-c2cnc(C(=O)N3CCn4ccnc4C3)s2)c1` [Example 87B-9], for which the IC50 is < 100 nM.

For the compound `Cc1cc(Nc2nccc(C(F)(F)F)n2)cc(-c2cnc(C(=O)N3CC[C@@H](CO)C3)s2)c1` [Example 87B-11], the IC50 is < 100 nM.

Turning to `Cc1cc(Nc2nccc(C(F)(F)F)n2)cc(-c2cnc(C(=O)N3CCC(C)(O)C3)s2)c1` (centres unmarked) [Example 87B-12], the IC50 was < 100 nM.

`Cc1cc(Nc2nccc(C(F)(F)F)n2)cc(-c2cnc(C(=O)N3CCC[S+]([O-])CC3)s2)c1` (centres unmarked) [Example 87B-13]: the IC50 is < 100 nM.

With `Cc1cc(Nc2nccc(C(F)(F)F)n2)cc(-c2cnc(C(=O)N3CCS(=O)(=O)CC3)s2)c1` [Example 87B-14], the IC50 lay in the range of 100 to 1000 nM.

With `Cc1cc(Nc2nccc(C(F)(F)F)n2)cc(-c2cnc(C(=O)N3CCN(CC(F)(F)F)CC3)s2)c1` [Example 87B-15], the IC50 is 1000 to 10000 nM.
